Measurements: ChEMBL document CHEMBL1147125, “Microbial transformation of (-)-guaiol and antibacterial activity of its transformed products” (2007)

Experiments:
[1] = system: Pseudomonas aeruginosa; test: Antibacterial activity against Pseudomonas aeruginosa at 100 ug/100 uL after 24 hrs; type: functional
[2] = system: Bacillus subtilis; test: Antibacterial activity against Bacillus subtils at 100 ug/100 uL after 24 hrs; type: functional
[3] = system: Salmonella typhi; test: Antibacterial activity against Salmonella typhi at 100 ug/100 uL after 24 hrs; type: functional, Salmonella enterica subsp. enterica serovar Typhi
[4] = system: Staphylococcus aureus; test: Antibacterial activity against Staphylococcus aureus at 100 ug/100 uL after 24 hrs; type: functional
[5] = system: Shigella flexneri; test: Antibacterial activity against Shigella flexneri at 100 ug/100 uL after 24 hrs; type: functional
[6] = system: Escherichia coli; test: Antibacterial activity against Escherichia coli at 100 ug/100 uL after 24 hrs; type: functional

Structure (SMILES)	inhibition zone (IZ) [1] [mm]	inhibition zone (IZ) [2] [mm]	inhibition zone (IZ) [3] [mm]	inhibition zone (IZ) [4] [mm]	inhibition zone (IZ) [5] [mm]	inhibition zone (IZ) [6] [mm]
C[C@H]1CC[C@@H](C(C)(C)O)C[C@@H]2C1=CC(=O)[C@@H]2C	13	11	–	–	–	–
C[C@@H]1[C@@H]2C[C@H](C(C)(C)O)CC[C@H](C)C2=C[C@@H]1O	20	–	15	–	–	–
C[C@@H]1C2=C(C[C@H](C(C)(C)O)C[C@H]1O)[C@@H](C)[C@@H](O)C2	17	–	15	20	–	–
C[C@@H]1C2=CC[C@H](C)[C@@H]2C[C@H](C(C)(C)O)C[C@@H]1O	20	–	16	–	–	–
C[C@H]1CC[C@@H](C(C)(C)O)C(=O)C2=C1CC[C@@H]2C	13	11	–	–	10	–
C[C@@H](O)[C@H]1C(=O)N2C(C(=O)O)=C(SCCNC=N)C[C@H]12 [IMIPENEM ANHYDROUS]	24	33	25	33	27	30
C[C@H]1CC[C@@H](C(C)(C)O)CC2=C1CC[C@@H]2C [GUAIOL]	17	15	24	–	17	16
